# Legend:
# NOMO-1 AML cells [1] = assay: cell death by PoPro-1-iodide/propidium iodide flow cytometry; settings: NOMO-1, 300 nM, 72 hours
# OCI-AML5 AML cells = assay: colony formation in soft agar; assay type: cell-based
# A549 NSCLC cells = assay: colony formation in soft agar; assay type: cell-based; settings: A549, 300 nM, 14 days
# [2] = pharmacokinetic study in mice; assay type: in vivo
# [3] = system: AXL phosphorylation in A549 NSCLC cells; assay: pAXL assay
# [4] = system: MERTK phosphorylation in 697 ALL cells; assay: pMERTK assay
# [5] = system: kinome (222 kinases quantified) in NOMO-1 human AML cells; assay: MIB-MS kinome profiling; assay type: cell-based; settings: NOMO-1 cells, 100 nM, one hour
# Kasumi-1 AML cells = assay: cell death by PoPro-1-iodide/propidium iodide flow cytometry; assay type: cell-based; settings: Kasumi-1, 300 nM, 72 hours
# COLO-699 NSCLC cells = assay: colony formation in soft agar; assay type: cell-based; settings: 14 days
# NOMO-1 AML cells [6] = assay: colony formation in soft agar; assay type: cell-based, human; settings: NOMO-1, 300 nM
smiles,measurement,setting,value
CC(C)C(=O)Nc1ccnc(C#Cc2ccc(Nc3ncc(-c4ccccn4)c(NC4CCC(O)CC4)n3)cc2)c1 (centres unmarked) [Compound 10],tumor cell death (% of cells),NOMO-1 AML cells [1],41%
same,reduction in colony number,"OCI-AML5 AML cells; OCI-AML5, 50 nM",70%
same,colony formation,"OCI-AML5 AML cells; OCI-AML5, 300 nM",complete abrogation of colony formation
same,reduction in colony number,A549 NSCLC cells,60–75%
same,oral bioavailability,[2]; p.o.,weak oral bioavailability
same,Cmax,"[2]; plasma, via i.p. route",435 ng/mL
same,T1/2,"[2]; plasma, via i.p. route",4.97 h
same,inhibition of pAXL at higher concentrations,[3]; higher concentrations of 10,Near complete inhibition
same,IC50,"[3]; read-out: IC50 (AXL phosphorylation), A549 NSCLC cells, 1 hour, 95% confidence interval = 18–57 nM",32 nM
same,inhibition of pMERTK at higher concentrations,[4]; higher concentrations of 10,Near complete inhibition
same,IC50,"[4]; read-out: IC50 (MERTK phosphorylation), 697 ALL cells, 1 hour, 95% confidence interval = 16–52 nM",28 nM
same,number of kinases with lower enrichment on the beads compared to DMSO control,[5]; 222 kinases quantified,27 kinases
same,number of kinases significantly decreased,[5]; p < 0.05 and log2 ratio 10/control ≥ 2,8 kinases
same,tumor cell death (% of cells),Kasumi-1 AML cells,67%
same,reduction in colony number,"COLO-699 NSCLC cells; COLO-699, 50 nM",70%
same,colony formation,"COLO-699 NSCLC cells; COLO-699, 300 nM",complete abrogation of colony formation
same,reduction in colony number,NOMO-1 AML cells [6],60–75%
